# Assay results: US4401660A, “Ester derivatives of 5-O-mycaminosyl tylonolide and method of using same” (Eli Lilly and Company, priority 1981, dated 1983)
# Tests used:
# Assay type in all cases: cell-based
# Design in all cases: unit not given here
# [1] = system: Pasteurella multocida 17E; test: MIC, broth-dilution microtiter test (Table III); settings: bovine isolate
# Protocol: (§1) The MIC's in Table II were determined by standard agar-dilution assays. The MIC's in Table III were obtained using a conventional broth-dilution microtiter test.
# Mycoplasma hyorhinis = test: MIC, broth-dilution microtiter test (Table III)
# Protocol: as §1
# [2] = system: Pasteurella multocida 60A; test: MIC, broth-dilution microtiter test (Table III); settings: avian isolate
# Protocol: as §1
# [3] = system: Pasteurella haemolytica 41D; test: MIC, broth-dilution microtiter test (Table III)
# Protocol: as §1
# Mycoplasma gallisepticum = test: MIC, broth-dilution microtiter test (Table III)
# Protocol: as §1
# [4] = system: Pasteurella haemolytica 22C; test: MIC, broth-dilution microtiter test (Table III)
# Protocol: as §1
# [5] = system: Pasteurella multocida 68C; test: MIC, broth-dilution microtiter test (Table III)
# Protocol: as §1
# [6] = system: Pasteurella multocida 22A; test: MIC, broth-dilution microtiter test (Table III)
# Protocol: as §1
# Streptococcus sp. 80 = test: MIC, broth-dilution microtiter test (Table III)
# Protocol: as §1
# [7] = system: Pasteurella multocida 40G; test: MIC, broth-dilution microtiter test (Table III)
# Protocol: as §1
# Mycoplasma synoviae = test: MIC, broth-dilution microtiter test (Table III)
# Protocol: as §1
# Staphylococcus aureus = test: MIC, broth-dilution microtiter test (Table III)
# Protocol: as §1
# [8] = system: Pasteurella haemolytica 23C; test: MIC, broth-dilution microtiter test (Table III)
# Protocol: as §1
# [9] = system: Staphylococcus epidermidis EPI2; test: MIC, standard agar-dilution assay (Table II)
# Protocol: as §1
# [10] = system: Streptococcus pneumoniae Park I; test: MIC, standard agar-dilution assay (Table II)
# Protocol: as §1
# [11] = system: Staphylococcus epidermidis EPI1; test: MIC, standard agar-dilution assay (Table II)
# Protocol: as §1
# [12] = system: Streptococcus pyogenes C203; test: MIC, standard agar-dilution assay (Table II)
# Protocol: as §1
# [13] = system: Haemophilus influenzae R252; test: MIC, standard agar-dilution assay (Table II); settings: Haemophilus influenzae R252, ampicillin-resistant strain
# Protocol: as §1
# [14] = system: Haemophilus influenzae Holt; test: MIC, standard agar-dilution assay (Table II); settings: ampicillin-sensitive strain
# Protocol: as §1
# [15] = system: Streptococcus Group D X66; test: MIC, standard agar-dilution assay (Table II)
# Protocol: as §1
# [16] = system: Streptococcus Group D 9960; test: MIC, standard agar-dilution assay (Table II)
# Protocol: as §1
# [17] = system: Staphylococcus aureus X1.1; test: MIC, standard agar-dilution assay (Table II)
# Protocol: as §1
# [18] = system: Staphylococcus aureus V41; test: MIC, standard agar-dilution assay (Table II); settings: Staphylococcus aureus V41, penicillin-resistant strain
# Protocol: as §1
# [19] = system: Staphylococcus aureus X400; test: MIC, standard agar-dilution assay (Table II); settings: Staphylococcus aureus X400, methicillin-resistant strain
# Protocol: as §1
# [20] = system: Staphylococcus aureus S13E; test: MIC, standard agar-dilution assay (Table II)
# Protocol: as §1
SMILES,minimal inhibitory concentration (MIC) [1],minimal inhibitory concentration (MIC) (Mycoplasma hyorhinis),minimal inhibitory concentration (MIC) [2],minimal inhibitory concentration (MIC) [3],minimal inhibitory concentration (MIC) (Mycoplasma gallisepticum),minimal inhibitory concentration (MIC) [4],minimal inhibitory concentration (MIC) [5],minimal inhibitory concentration (MIC) [6],minimal inhibitory concentration (MIC) (Streptococcus sp. 80),minimal inhibitory concentration (MIC) [7],minimal inhibitory concentration (MIC) (Mycoplasma synoviae),minimal inhibitory concentration (MIC) (Staphylococcus aureus),minimal inhibitory concentration (MIC) [8],minimal inhibitory concentration (MIC) [9],minimal inhibitory concentration (MIC) [10],minimal inhibitory concentration (MIC) [11],minimal inhibitory concentration (MIC) [12],minimal inhibitory concentration (MIC) [15],minimal inhibitory concentration (MIC) [16],minimal inhibitory concentration (MIC) [17],other results
"CCC(=O)OC1C(OC2C(CC=O)CC(C)C(=O)C=CC(C)=CC(CO)C(CC)OC(=O)CC(O)C2C)OC(C)C(O)C1N(C)C (stereo not shown) [Compound 2, 2'-O-Propionyl-OMT]",3.12,3.12,1.56,12.5,0.39,12.5,3.12,3.12,< 0.78,6.25,0.78,3.12,12.5,1,8,1,0.5,2,2,2,minimal inhibitory concentration (MIC) [13]: 4; minimal inhibitory concentration (MIC) [14]: 4; minimal inhibitory concentration (MIC) [18]: 4; minimal inhibitory concentration (MIC) [19]: 4; minimal inhibitory concentration (MIC) [20]: 2
"CCC1OC(=O)CC(O)C(C)C(OC2OC(C)C(OC(=O)CC(C)C)C(N(C)C)C2OC(C)=O)C(CC=O)CC(C)C(=O)C=CC(C)=CC1COC(C)=O (stereo not shown) [Compound 51, 2',23-Di-O-Acetyl-4'-O-isovaleryl-OMT]",3.12,6.25,3.12,3.12,< 0.05,3.12,3.12,6.25,0.78,3.12,0.78,0.78,3.12,1,0.125,0.5,0.25,1,1,1,minimal inhibitory concentration (MIC) [18]: 1; minimal inhibitory concentration (MIC) [19]: 1; minimal inhibitory concentration (MIC) [20]: 0.5
CCC1OC(=O)CC(O)C(C)C(OC2OC(C)C(O)C(N(C)C)C2OC(C)=O)C(CC=O)CC(C)C(=O)C=CC(C)=CC1COC(=O)C12CC3CC(CC(C3)C1)C2 (stereo not shown) [Compound 69],12.5,3.12,12.5,25,0.78,25,12.5,12.5,1.56,12.5,1.56,6.25,25,1,0.5,1,1,2,2,1,minimal inhibitory concentration (MIC) [13]: 16; minimal inhibitory concentration (MIC) [14]: 8; minimal inhibitory concentration (MIC) [18]: 1; minimal inhibitory concentration (MIC) [19]: 1; minimal inhibitory concentration (MIC) [20]: 1
"CCC1OC(=O)CC(O)C(C)C(OC2OC(C)C(O)C(N(C)C)C2OC(=O)Cc2ccccc2)C(CC=O)CC(C)C(=O)C=CC(C)=CC1COC(=O)Cc1ccccc1 (stereo not shown) [Compound 53, 2',23-Di-O-Phenylacetyl-OMT]",1.56,3.12,1.56,3.12,< 0.05,3.12,0.78,1.56,< 0.05,1.56,< 0.05,0.195,3.12,0.25,0.03,0.25,0.06,0.25,0.25,0.25,minimal inhibitory concentration (MIC) [13]: 1; minimal inhibitory concentration (MIC) [14]: 1; minimal inhibitory concentration (MIC) [18]: 0.25; minimal inhibitory concentration (MIC) [19]: 0.25; minimal inhibitory concentration (MIC) [20]: 0.25
"CCC1OC(=O)CC(O)C(C)C(OC2OC(C)C(OC(=O)CC(C)C)C(N(C)C)C2OC(C)=O)C(CC=O)CC(C)C(=O)C=CC(C)=CC1COC(=O)CC(C)C (stereo not shown) [Compound 50, 2'-O-Acetyl-4',23-di-O-isovaleryl-OMT]",12.5,6.25,6.25,25,0.195,25,6.25,25,0.39,3.12,1.56,0.39,25,1,0.5,1,1,1,1,1,minimal inhibitory concentration (MIC) [18]: 2; minimal inhibitory concentration (MIC) [19]: 2; minimal inhibitory concentration (MIC) [20]: 1
CCC1OC(=O)CC(O)C(C)C(OC2OC(C)C(O)C(N(C)C)C2OC(C)=O)C(CC=O)CC(C)C(=O)C=CC(C)=CC1COC(=O)C(Cl)(Cl)Cl (stereo not shown) [Compound 77],3.12,3.12,3.12,12.5,0.78,12.5,25,50,0.78,25,0.78,1.56,12.5,2,0.25,1,0.25,1,1,1,minimal inhibitory concentration (MIC) [13]: 1; minimal inhibitory concentration (MIC) [18]: 2; minimal inhibitory concentration (MIC) [19]: 2; minimal inhibitory concentration (MIC) [20]: 1
